Laboratory results as given in patent US11008577B1 (priority 2017, dated 2021).
Where a SMILES comes first, the peptide text is derived from it. Bridges are numbered along the chain shown (N, C = ends). [ ]: non-standard residue; d: D form. The star is where a group is joined. Ileψ(thiazoline)Cys = CC[C@H](C)[C@H](N)C1=N[C@H](C(=O)*)CS1; dOrn = NCCC[C@@H](N)C(=O)O

What was measured:
high-lipid (HL) mutants = assay: Chemical sensitivity analysis, high-lipid mutants vs parent strain; type: cell-based, Rhodobacter sphaeroides; details: all HL mutants; 96-well plates, 30° C., 48 hours, OD 595 nm, normalized to DMSO control and parent strain; conc. per Table 4B
HLM04 and HLM07 = assay: Chemical sensitivity analysis, Cluster B strains; type: cell-based, Rhodobacter sphaeroides; details: 48 hours, OD 595 nm, conc. per Table 4B
Procedure: (§1) Selected compounds (Tables 4A and 4B) were tested for their effects on growth of the parent strain to determine the highest doses that cause <30% growth reduction. Parent and high-lipid mutant strains were grown in the presence of the chemicals, or DMSO as a control, in 96-well plates at 30° C. with shaking for 48 hours. Final ODs were read at 595 nm on an Infinite® F500 microplate reader (Tecan). For each strain, final ODs for each drug treatment were first divided by the OD of the DMSO control for that strain to determine relative cell growth, and then the growth value for each treated culture was normalized by the parent strain growth under the same condition.

HLM01, HLM02 and HLM05 = assay: Chemical sensitivity analysis, Cluster A strains; type: cell-based, Rhodobacter sphaeroides; details: 48 hours, OD 595 nm, conc. per Table 4B
HLM03 = details: 48 hours, OD 595 nm, conc. per Table 4B
Procedure: as §1

## CCCCCCCCCCCCOS(=O)(=O)[O-].[Na+] [SDS, sodium dodecyl sulfate]
high-lipid (HL) mutants
  growth of the high-lipid mutants compared to the parent strain (relative fitness): many or all of the high-lipid mutants showed increased sensitivity

## CC[C@H](C)[C@H](N)C1=N[C@H](C(=O)N[C@@H](CC(C)C)C(=O)N[C@H](CCC(=O)O)C(=O)N[C@H](C(=O)N[C@H]2CCCCNC(=O)[C@H](CC(N)=O)NC(=O)[C@@H](CC(=O)O)NC(=O)[C@H](Cc3cnc[nH]3)NC(=O)[C@@H](Cc3ccccc3)NC(=O)[C@H]([C@@H](C)CC)NC(=O)[C@@H](CCCN)NC2=O)[C@@H](C)CC)CS1 [bacitracin] ({Ileψ(thiazoline)Cys}-L[dE]IK[dOrn]I[dF]H[dD]N; lactam 4-C)
HLM04 and HLM07
  sensitivity compared to the parent strain (relative growth, cluster ** in FIG. 3): increased sensitivity

## CO/N=C(\C(=O)N[C@@H]1C(=O)N2C(C(=O)O)=C(CSc3nc(=O)c(=O)[nH]n3C)CS[C@H]12)c1csc(N)n1 [ceftriaxone]
HLM04 and HLM07
  sensitivity compared to the parent strain (relative growth, cluster ** in FIG. 3): increased sensitivity

## CC[C@H]1OC(=O)[C@H](C)[C@@H](O[C@H]2C[C@@](C)(OC)[C@@H](O)[C@H](C)O2)[C@H](C)[C@@H](O[C@@H]2O[C@H](C)C[C@H](N(C)C)[C@H]2O)[C@](C)(OC)C[C@@H](C)C(=O)[C@H](C)[C@@H](O)[C@]1(C)O [clarithromycin]
HLM01, HLM02 and HLM05
  sensitivity compared to the parent strain (relative growth, cluster * in FIG. 3): sensitive

## CC[C@H]1OC(=O)[C@H](C)[C@@H](O[C@H]2C[C@@](C)(OC)[C@@H](O)[C@H](C)O2)[C@H](C)[C@@H](O[C@@H]2O[C@H](C)C[C@H](N(C)C)[C@H]2O)[C@](C)(O)C[C@@H](C)C(=O)[C@H](C)[C@@H](O)[C@]1(C)O [erythromycin]
HLM01, HLM02 and HLM05
  sensitivity compared to the parent strain (relative growth, cluster * in FIG. 3): sensitive

## OO [hydrogen peroxide]
HLM03
  sensitivity compared to the parent strain (relative growth): increased sensitivity

## CO[C@H]1/C=C/O[C@@]2(C)Oc3c(C)c(O)c4c(O)c(c5c(nc6cc(C)ccn65)c4c3C2=O)NC(=O)/C(C)=C\C=C\[C@H](C)[C@H](O)[C@@H](C)[C@@H](O)[C@@H](C)[C@H](OC(C)=O)[C@@H]1C [rifaximin]
HLM01, HLM02 and HLM05
  sensitivity compared to the parent strain (relative growth, cluster * in FIG. 3): sensitive

## neomycin
high-lipid (HL) mutants
  growth of the high-lipid mutants compared to the parent strain (relative fitness): no growth difference
